Measured values reported in patent publication US6514709B1, “High throughput screening by measurement of intracellular calcium levels” (Merck & Co., Inc., priority 2000, dated 2003).
Blank lines part the entries; values can stand above or below the compound they belong to.

Tests used:
[1] = target: T1, human growth hormone secretagogue receptor type 1a (hGHSR1A) (Homo sapiens, UniProt Q92847); experiment: Aequorin luminescence in hGHSR1A cells (WALLAC MICROBETA JET); format: cell-based; settings: 30 μM BAPTA-AM, 100 nM ghrelin
T1 construct: expressed in transfected cells
Procedure: Cells were charged with the aequorin substrate, coelenterazine h (MOLECULAR PROBES, #C-6780), by removing the growth media and incubating the cells with 75 μl of charge buffer (DMEM GIBCOBRL#12320-032; 0.1% FBS GEMINI BIO-PRODUCTS, Inc. #100-107; 5 μM coelenterazine h; 30 μM reduced glutathione) for 2 hours at 37° C., 10% CO^2. […] The cells were then washed and loaded with 100 μl of enriched-PBS with or without the indicated antagonist. […] In order to obtain more consistent kinetics, the Jet was set to simultaneously read only six wells per determination.

[2] = target: T2, endogenous muscarinic receptor (Homo sapiens, UniProt P20309); experiment: Fluo-4 fluorescence calcium response in HEK-AEQ17 cells (VIPR); format: cell-based; settings: 3 μM BAPTA-AM, muscimol (10 μM)
T2 construct: stimulated an endogenous muscarinic receptor; endogenous in cells; host or cells: parental HEK293 apoaequorin cells (293AEQ17 / HEK-AEQ17)
Procedure: The VIPR instrument was used to add agonist (in 100 μl enriched-PBS) after recording a 10 sec. baseline and the fluorescence was measured for up to 300 sec.
Muscimol stimulated an endogenous muscarinic receptor (Moriya, H., Takagi, Y., Nakanishi, T., Hayashi, M., Tani, T., and Hirotsu, I. (1999) Affinity profiles of various muscarinic antagonists for cloned human muscarinic acetylcholine receptor (MACHR) subtypes and MACHRS in rat heart and submandibular gland. Life Sciences 25 2351-2358; Caulfield, M. P. (1993) Muscarinic receptors-characterization, coupling and function. Pharmac. Ther. 58, 319-379)in HEK-AEQ17 cells which gave a robust fluorescence signal when measured with fluo-4 using the VIPR. The kinetics of this calcium transient was different from that measured for either the VR1 or hGHSR1a calcium transient. Activation with muscimol (10 μM) caused a fast transient response, followed by a slower response (FIG. 9A). The fast transient response was very sensitive to BAPTA, and was eliminated by low levels of the chelator (3 μM BAPTA-AM), but a fluorescence signal could be detected under these conditions that was stable for at least 3 minutes. At a higher BAPTA concentration (10 μM BAPTA-AM), the increase in fluorescence was very slow and had not yet stabilized even after 3 minutes.

[3] = test system: ionomycin-induced calcium influx; settings: presence of BAPTA-AM; cited from earlier work
[4] = target: T3, rat VR1 capsaicin receptor (Rattus norvegicus, UniProt O35433); experiment: Aequorin luminescence in VR1 cells (WALLAC MICROBETA JET); format: cell-based; settings: for time to peak response: 0.5 μM capsaicin
T3 construct: expressed in transfected cells
Procedure: (§1) Parental HEK293 cell lines expressing apoaequorin (293AEQ17 cells) were used to develop stable clonal cell lines expressing the rat VR1 capsaicin receptor. The VR1 293AEQ17 were maintained on growth media containing DMEM (GIBCOBRL, high glucose, with L-glutamine, with 110 mg/L sodium pyruvate, with pyridoxine HCl), 25 mM HEPES (GIBCOBRL, 1M stock), 0.5 mg/mL geneticin (GIBCOBRL, 50 mg/mL stock), 1 μg/mL puromycin (CLONTECH), and 10% fetal bovine serum (GEMINI BIO-PRODUCTS, heat inactivated) at 37° C., 10% CO^2.
Cells were grown to 80-95% confluence in tissue culture flasks (T-225, Corning) and harvested by trypsinization (Trypsin/EDTA, GIBCOBRL). Cells were dispensed (about 1×10^5 cells/0.2 ml/well) into 96-well white clear-bottom BIOCOAT poly-D-lysine plates (BECTON DICKENSON, Bedford, Mass.) in growth media and incubated overnight at 37° C. in a humidified incubator at 10% CO^2. Cells were charged with the aequorin substrate, coelenterazine h (MOLECULAR PROBES, #C-6780), by removing the growth media and incubating the cells with 75 μl of charge buffer (DMEM GIBCOBRL #12320-032; 0.1% FBS GEMINI BIO-PRODUCTS, Inc. #100-107;5 μM coelenterazine h; 30 μM reduced glutathione) for 2 hours at 37° C., 10% CO^2. The charge buffer was then removed and the cells were washed twice with 100 μl of enriched-PBS (pH 7.2) and then incubated with 100 μl of enriched-PBS supplemented with 0-30 μM BAPTA-AM for 30-120 min at 37° C., 10% CO^2. The cells were then washed and loaded with […] of enriched-PBS with or without the indicated antagonist. The calcium response was initiated by addition of 100 μl of the indicated concentration of capsaicin (SIGMA #M2028) to the wells by a WALLAC MICROBETA JET. In order to obtain more consistent kinetics, the Jet was set to simultaneously read only six wells per determination.
For these experiments, the kinetics of the flash luminescence were followed using a WALLAC MICROBETA JET luminometer that injects reagent and records light emission from six wells of a 96-well plate simultaneously.

[5] = target: T1, human growth hormone secretagogue receptor type 1a (hGHSR1A); experiment: Fluo-4 fluorescence calcium response in hGHSR1a cells (VIPR); format: cell-based; settings: 30 μM BAPTA-AM, 100 nM ghrelin
Procedure: Cells were grown to 80-95% confluence in tissue culture flasks (T-225, Corning) and harvested by trypsinization (Trypsin/EDTA, GIBCOBRL). Cells were dispensed (about 1×10^5 cells/0.2 ml/well) into 96-well black clear-bottom BIOCOAT poly-D-lysine plates (BECTON DICKENSON, Bedford, Mass.) in growth media and incubated overnight at 37° C. in a humidified incubator at 10% CO^2. […] Wells were washed two times with 100 μl of enriched-PBS, and then 100 μl enriched-PBS with or without antagonist was added for 15-30 minutes prior to assay on the AURORA fluorescence plate reader VIPR (ex. 480 nm, em. 535 nm). […] The VIPR instrument was used to add agonist (in 100 μl enriched-PBS) after recording a 10 sec. baseline and the fluorescence was measured for up to 300 sec.

[6] = target: T3, rat VR1 capsaicin receptor; experiment: Fluo-3 fluorescence calcium response in VR1 cells (VIPR); format: cell-based
Procedure: as §1, with “receptor (Caterina, M. J., Schumacher, M. A., Tominaga, M., Rosen, T. A., Levine, J. D., and Julius, D. (1997) The capsaicin receptor: a heat-activated ion channel in the pain pathway. Nature 389, 816-824).” for “receptor.”
Cells were grown to 80-95% confluence in tissue culture flasks (T-225, CORNING) and harvested by trypsinization (Trypsin/EDTA, GIBCOBRL). Cells were dispensed (about 1×10^5 cells/0.2 ml/well) into 96-well black clear-bottom BIOCOAT poly-D-lysine plates (BECTON DICKENSON, Bedford, Mass.) in growth media and incubated overnight at 37° C. in a humidified incubator at 10% CO^2. Cells were washed once with 200 μls of enriched PBS (Dulbecco's PBS (GIBCOBRL #14040-117), 10 mM HEPES, 2 g/L glucose; pH 7.2) and then incubated with 100 μl of 5 μM fluo-3-AM (MOLECULAR PROBES #F1241) with or without of 1,2-bis(o-aminophenoxy)ethane-N,N,N′,N′-tetraacetic acid tetra(acetoxymethyl) ester (BAPTA-AM, MOLECULAR PROBES #B 1205) in enriched PBS containing 0.02% pluronic F-127 (MOLECULAR PROBES #P-3000) for 30-70 minutes. Wells were washed two times with 100 μl of enriched-PBS, and then 100 μl enriched-PBS with or without antagonist was added for 15-30 minutes prior to assay on the AURORA fluorescence plate reader VIPR (ex. 480 nm, em. 535 nm). […] The calcium response was initiated by addition of 100 μl of the indicated concentration of capsaicin (SIGMA #M2028). The VIPR instrument was used to add agonist (in 100 μl enriched-PBS) after recording a 10 sec. baseline and the fluorescence was measured for up to 300 sec.
Changes in intracellular calcium were measured using the fluo-3 dye and detecting the kinetics of the response after addition of the VR1 agonist, capsaicin (0.5 uM) to cells expressing VR1 using a VIPR fluorescence plate reader (FIGS. 5 & 6A).

[7] = test system: ligand-gated calcium channel; experiment: Model aequorin-based functional cellular assay for a ligand-gated calcium channel; format: cell-based; settings: BAPTA-AM 0-30 uM, after injection of agonist
Procedure: For this assay, HEK293 cells co-expressing the receptor of interest and apoaequorin were grown to confluence in BIOCOAT poly-D-lysine opaque white 96-well microtiter plates (BECTON DICKINSON). The cells were maintained on a standard growth media. The cells were charged with growth media supplemented with 5 uM of coelenterazine h (MOLECULAR PROBES, Eugene, Oreg.) for 2 hr at 37° C. in a humidified incubator at 5% CO2. The charged cells were then washed and loaded with assay buffer.
Addition of agonist caused the rapid and transient luminescent signal that was complete within 10-15 seconds (FIG. 1). The kinetics of the flash luminescent signal was followed by using a WALLAC MICROBETA JET instrument where agonist was injected directly into the wells containing the charged cells. As a buffering reagent the cell permeable acetoxymethyl ester BAPTA-AM was used. BAPTA is a specific calcium chelator that rapidly binds and releases calcium. […] A schematic representation of this assay appears in FIG. 2.
The addition of increasing levels of BAPTA-AM (0-30 uM) caused an initial delay in the aequorin-based luminescence signal upon injection of agonist and extended the signal far greater than 30 seconds (FIG. 1). The addition of a known receptor antagonist was able to completely block the signal (FIG. 3).

[8] = target: T1, human growth hormone secretagogue receptor type 1a (hGHSR1A); experiment: Manual luminescence measurement in hGHSR1a cells, read 2 minutes after agonist; format: cell-based; settings: 2 minutes after 100 nM ghrelin, with BAPTA
Procedure: Parental HEK293 cell lines expressing apoaequorin (293AEQ17 cells) were used to develop stable clonal cell lines expressing the human growth hormone secretagogue receptor type 1a (hGHSR1A).
Cells were charged with the aequorin substrate, coelenterazine h (MOLECULAR PROBES, #C-6780), by removing the growth media and incubating the cells with 75 μl of charge buffer (DMEM GIBCOBRL #12320-032; 0.1% FBS GEMINI BIO-PRODUCTS, Inc. #100-107;5 μM coelenterazine h; 30 μM reduced glutathione) for 2 hours at 37° C., 10% CO^2. […] The cells were then washed and loaded with 100 μl of enriched-PBS with or without the indicated antagonist. […] The WALLAC MICROBETA JET was used to measure 10 sec of luminescence after a delay of 2 minutes.
J. Med Chem. 43 4370-4376). […] After a lapse of two minutes, the plates were read using the WALLAC MICROBETA JET luminometer. […] These complex dose-response curves were observed both in the presence and absence of BAPTA. Yet overall, the addition of BAPTA increased the luminescence such that a 6-fold signal over background could be measured 2 minutes after stimulation with agonist.

[9] = target: T3, rat VR1 capsaicin receptor; experiment: Manual luminescence measurement in VR1 cells, read 2 minutes after agonist; format: cell-based
Procedure: Parental HEK293 cell lines expressing apoaequorin (293AEQ17 cells) were used to develop stable clonal cell lines expressing the rat VR1 capsaicin receptor.
Cells were grown to 80-95% confluence in tissue culture flasks (T-225, Corning) and harvested by trypsinization (Trypsin/EDTA, GIBCOBRL). Cells were dispensed (about 1×10^5 cells/0.2 ml/well) into 96-well white clear-bottom BIOCOAT poly-D-lysine plates (BECTON DICKENSON, Bedford, Mass.) in growth media and incubated overnight at 37° C. in a humidified incubator at 10% CO^2.

[10] = 0.5 uM capsaicin, absence of BAPTA

T1 sequence (Q92847 whole entry): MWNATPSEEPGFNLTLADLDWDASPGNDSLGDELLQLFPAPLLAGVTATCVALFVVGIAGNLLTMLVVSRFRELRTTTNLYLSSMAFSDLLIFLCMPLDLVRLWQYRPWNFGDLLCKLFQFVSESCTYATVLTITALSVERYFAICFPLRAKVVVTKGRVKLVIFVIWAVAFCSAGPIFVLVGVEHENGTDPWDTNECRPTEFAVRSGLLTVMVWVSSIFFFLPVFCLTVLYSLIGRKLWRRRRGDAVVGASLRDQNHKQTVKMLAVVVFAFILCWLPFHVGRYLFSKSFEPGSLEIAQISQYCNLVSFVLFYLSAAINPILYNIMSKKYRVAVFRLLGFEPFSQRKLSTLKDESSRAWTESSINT
T3 sequence (O35433 whole entry): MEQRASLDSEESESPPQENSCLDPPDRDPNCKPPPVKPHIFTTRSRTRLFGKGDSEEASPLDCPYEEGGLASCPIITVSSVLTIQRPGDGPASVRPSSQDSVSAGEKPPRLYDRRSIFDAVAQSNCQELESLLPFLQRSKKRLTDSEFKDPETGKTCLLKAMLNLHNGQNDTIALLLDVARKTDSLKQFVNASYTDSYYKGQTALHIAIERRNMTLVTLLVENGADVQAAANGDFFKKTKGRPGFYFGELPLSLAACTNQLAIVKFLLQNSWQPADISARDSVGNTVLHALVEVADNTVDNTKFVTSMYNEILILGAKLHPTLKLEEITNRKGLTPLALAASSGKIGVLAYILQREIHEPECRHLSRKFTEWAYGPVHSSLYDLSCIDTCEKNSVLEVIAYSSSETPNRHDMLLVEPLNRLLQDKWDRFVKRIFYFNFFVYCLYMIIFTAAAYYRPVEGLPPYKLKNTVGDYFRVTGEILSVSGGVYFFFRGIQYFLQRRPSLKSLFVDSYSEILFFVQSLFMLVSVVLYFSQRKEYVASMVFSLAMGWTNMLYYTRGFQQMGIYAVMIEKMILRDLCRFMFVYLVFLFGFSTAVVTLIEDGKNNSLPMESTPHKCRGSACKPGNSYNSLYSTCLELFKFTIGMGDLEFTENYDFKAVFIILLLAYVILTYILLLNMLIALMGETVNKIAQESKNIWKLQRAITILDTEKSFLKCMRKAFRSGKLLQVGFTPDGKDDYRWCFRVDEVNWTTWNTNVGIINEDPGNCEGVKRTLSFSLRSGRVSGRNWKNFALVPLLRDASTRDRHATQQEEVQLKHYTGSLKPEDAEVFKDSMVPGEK
T2 sequence (P20309 whole entry): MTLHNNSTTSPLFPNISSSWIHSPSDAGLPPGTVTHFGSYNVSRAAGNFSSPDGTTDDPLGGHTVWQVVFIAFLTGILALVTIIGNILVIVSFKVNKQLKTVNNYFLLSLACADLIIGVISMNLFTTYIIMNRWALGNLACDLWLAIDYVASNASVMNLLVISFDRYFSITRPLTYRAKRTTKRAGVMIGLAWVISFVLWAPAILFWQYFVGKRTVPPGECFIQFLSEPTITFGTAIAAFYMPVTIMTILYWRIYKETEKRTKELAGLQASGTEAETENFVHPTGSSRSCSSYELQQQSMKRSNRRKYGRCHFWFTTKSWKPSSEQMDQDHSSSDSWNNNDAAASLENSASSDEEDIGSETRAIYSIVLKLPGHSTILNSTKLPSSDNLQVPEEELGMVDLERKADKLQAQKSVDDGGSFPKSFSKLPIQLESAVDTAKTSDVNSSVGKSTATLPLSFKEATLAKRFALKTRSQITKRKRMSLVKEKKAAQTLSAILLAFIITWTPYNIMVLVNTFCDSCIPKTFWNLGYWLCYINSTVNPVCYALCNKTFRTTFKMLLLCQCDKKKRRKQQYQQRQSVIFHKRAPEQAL

SMILES: CC(=O)OCOC(=O)CN(CC(=O)OCOC(C)=O)c1ccccc1OCCOc1ccccc1N(CC(=O)OCOC(C)=O)CC(=O)OCOC(C)=O [BAPTA-AM, 1,2-bis(o-aminophenoxy)ethane-N,N,N′,N′-tetraacetic acid tetra(acetoxymethyl)ester]
luminescence signal relative to the response in the absence of BAPTA [1]: about 5%
time to reach the maximum light emission [1]: 75 s
duration of stable fluorescence signal [2]: at least 3 minutes
effect on fast transient response [2]: eliminated
slowing of calcium transients [3]: up to 8 fold
total signal at a given agonist concentration ([4]; 0 μM to 30 μM BAPTA-AM): did not significantly vary
time to peak response ([4]; 30 μM BAPTA-AM): 10 s
duration of extended luminescence signal ([4]; BAPTA-AM 0-30 μM, 50 nM capsaicin, maximum time recorded): up to 3 minutes
time of maximum luminescence response ([4]; increasing BAPTA-AM 0-30 μM, 50 nM capsaicin): 30 s
duration of stable fluorescent signal [5]: up to 5 minutes
time to peak fluorescence response [5]: 150 s
time to peak fluorescence signal ([6]; 3 μM BAPTA-AM for 30 minutes, 0.5 uM capsaicin): about 40 sec
fluo-3 signal decay time ([6]; 3 μM BAPTA-AM, 0.5 uM capsaicin): about 150 s
peak response time ([6]; 10 and 30 μM BAPTA-AM, 0.5 uM capsaicin): up to 100 sec
duration of extended luminescence signal [7]: greater than 30 seconds

signal over background [8]: 6 fold
signal over background ([9]; 2 minutes after 0.5 uM capsaicin, with BAPTA): 4 fold
effect on peak signal ([6]; 3 μM BAPTA, 0.1 μM capsaicin): decreased the peak signal
SMILES: O=C(O)CN(CC(=O)O)c1ccccc1OCCOc1ccccc1N(CC(=O)O)CC(=O)O [BAPTA]

time for luminescence signal to be largely complete ([4]; 50 nM capsaicin, no BAPTA): ≤ 30 s
time to peak luminescence ([4]; 50 nM capsaicin, no BAPTA): about 10 sec
time to peak response ([4]; no BAPTA): about 5 sec
time to decay to 50% [6, 10]: about 150 sec
time to peak fluorescence response [6, 10]: about 20 sec
SMILES: COc1cc(CNC(=O)CCCC/C=C/C(C)C)ccc1O [capsaicin]

block of luminescence signal ([9]; higher concentrations of antagonist, 0.5 uM capsaicin, with and without BAPTA): completely blocked
block of capsaicin response ([6]; 20 μM capsazepine, 0.5 uM capsaicin): completely blocked
SMILES: Oc1cc2c(cc1O)CN(C(=S)NCCc1ccc(Cl)cc1)CCC2 [capsazepine]
